From patent US5945539A, “Oxazole derivatives and use thereof” (Japan Tobacco, Inc., priority 1994, dated 1999) come the findings set out here.

Data set [1] deals with T1, cyclooxygenase-1 (COX-1) (Homo sapiens, UniProt P23219).
T1 construct: an enzyme prepared from human platelets; from tissue; host or cells: human platelets
The data set can be described thus: inhibitory activity on cyclooxygenase-1 (Experimental Example 1-2, enzyme prepared from human platelets). The class given is biochemical. As to conditions: COX-1 prepared from human platelets.
Method: (§1) That is, a test sample (20 μl), an enzyme solution (20 μl) and distilled water (10 μl) were added to 100 mM Tris-HCl buffer (pH 8, 140 μl) containing hematin (2 μM) and tryptophan (5 mM), and the mixture was thoroughly stirred, which was followed by preincubation at 24° C. for 5 minutes. Then, a ^1 4 C arachidonic acid solution (10 μl) was added and the mixture was reacted at 24° C., whereafter a solution (40 μl) of ethyl ether/methanol/1 M citric acid (30/4/1) ice-cooled to -20° C. was added to stop the reaction.

The test system of data set [2] is carrageenin-induced paw edema. The data set can be described thus: effects on carrageenin-induced paw edema in rats (Experimental Example 2). As to conditions: Rattus norvegicus, po, 3 h. The class given is in vivo, male Donryu rats. Here is the method: Carrageenin (1%, 0.05 ml) dissolved in physiological saline was subcutaneously injected to the left hind paw of male Donryu rats to induce paw edema. The degree of paw edema was evaluated by measuring the volume of the paw 3 hours after carrageenin administration. […] Inhibitory activity was expressed by the dose (ED30) of the test compound necessary for inhibiting by 30% relative to the control group.

The target in data set [3] is T2, cyclooxygenase-1 (COX-1) (Ovis aries, UniProt P05979).
T2 sequence (P05979 25-600): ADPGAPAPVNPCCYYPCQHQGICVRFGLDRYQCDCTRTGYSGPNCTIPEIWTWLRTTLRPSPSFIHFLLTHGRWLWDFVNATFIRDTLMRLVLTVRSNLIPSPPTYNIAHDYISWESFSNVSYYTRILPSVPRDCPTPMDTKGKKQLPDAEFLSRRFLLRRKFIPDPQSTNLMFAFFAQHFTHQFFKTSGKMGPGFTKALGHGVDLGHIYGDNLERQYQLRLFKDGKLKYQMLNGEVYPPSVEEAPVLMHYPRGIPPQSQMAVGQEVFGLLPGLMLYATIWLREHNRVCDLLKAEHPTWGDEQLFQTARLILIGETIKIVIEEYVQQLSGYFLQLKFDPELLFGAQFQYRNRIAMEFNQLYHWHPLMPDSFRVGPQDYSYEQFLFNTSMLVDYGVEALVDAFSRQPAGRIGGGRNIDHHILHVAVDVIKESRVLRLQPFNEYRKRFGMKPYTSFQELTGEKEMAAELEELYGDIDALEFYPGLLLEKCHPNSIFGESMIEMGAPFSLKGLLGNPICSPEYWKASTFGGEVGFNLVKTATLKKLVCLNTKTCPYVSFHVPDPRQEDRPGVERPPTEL
The data set can be described thus: inhibitory activity on cyclooxygenase-1 (Experimental Example 1-1, sheep seminal vesicle microsome fraction). The class given is biochemical. As to conditions: for IC50: sheep seminal vesicle COX-1, pH 8, 24° C.; for inhibition at 100 µM: sheep seminal vesicle COX-1, inhibition at 100 μM test compound.
Method: as §1

A further data set concerns the target T3, cyclooxygenase-2 (COX-2) (Ovis aries, UniProt P79208).
T3 sequence (P79208 17-603): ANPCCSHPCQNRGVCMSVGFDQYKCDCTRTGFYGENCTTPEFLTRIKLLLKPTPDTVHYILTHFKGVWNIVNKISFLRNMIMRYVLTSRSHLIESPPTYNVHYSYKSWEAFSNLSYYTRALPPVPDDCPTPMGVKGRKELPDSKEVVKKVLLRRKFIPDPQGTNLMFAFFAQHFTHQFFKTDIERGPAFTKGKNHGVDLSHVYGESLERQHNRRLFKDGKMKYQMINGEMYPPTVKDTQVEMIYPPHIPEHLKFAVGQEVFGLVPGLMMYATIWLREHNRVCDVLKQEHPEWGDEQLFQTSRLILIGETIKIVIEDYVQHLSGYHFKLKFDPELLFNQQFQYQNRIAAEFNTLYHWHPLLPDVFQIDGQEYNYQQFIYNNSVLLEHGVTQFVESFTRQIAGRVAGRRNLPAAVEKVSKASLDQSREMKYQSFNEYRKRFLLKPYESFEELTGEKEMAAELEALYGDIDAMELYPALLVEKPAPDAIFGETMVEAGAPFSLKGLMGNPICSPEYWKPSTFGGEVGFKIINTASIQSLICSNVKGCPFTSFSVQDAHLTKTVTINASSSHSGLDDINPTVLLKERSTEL
The data set can be described thus: inhibitory activity on cyclooxygenase-2 (Experimental Example 1-1, sheep placenta solubilized fraction). The class given is biochemical. As to conditions: for IC50: sheep placenta COX-2, pH 8, 24° C.; for inhibition at 100 µM: sheep placenta COX-2, inhibition at 100 μM test compound.

Data set [4] can be described thus: effects on gastric ulcer formation in rats (Experimental Example 3). More on the design: species or system male Donryu rats. As to conditions: rat, in vivo. Here is the method: A test compound (100 mg/kg) was orally administered (10 ml/kg) to male Donryu rats. Six hours later, the stomach of the rats was exposed and fixed with 0.1% formalin. The stomach was opened and the degree of ulcer formation was evaluated.

In data set [5] the target is T4, human cyclooxygenase-2 (COX-2) (Homo sapiens, UniProt P35354).
T4 construct: made in house
T4 sequence (P35354 18-604): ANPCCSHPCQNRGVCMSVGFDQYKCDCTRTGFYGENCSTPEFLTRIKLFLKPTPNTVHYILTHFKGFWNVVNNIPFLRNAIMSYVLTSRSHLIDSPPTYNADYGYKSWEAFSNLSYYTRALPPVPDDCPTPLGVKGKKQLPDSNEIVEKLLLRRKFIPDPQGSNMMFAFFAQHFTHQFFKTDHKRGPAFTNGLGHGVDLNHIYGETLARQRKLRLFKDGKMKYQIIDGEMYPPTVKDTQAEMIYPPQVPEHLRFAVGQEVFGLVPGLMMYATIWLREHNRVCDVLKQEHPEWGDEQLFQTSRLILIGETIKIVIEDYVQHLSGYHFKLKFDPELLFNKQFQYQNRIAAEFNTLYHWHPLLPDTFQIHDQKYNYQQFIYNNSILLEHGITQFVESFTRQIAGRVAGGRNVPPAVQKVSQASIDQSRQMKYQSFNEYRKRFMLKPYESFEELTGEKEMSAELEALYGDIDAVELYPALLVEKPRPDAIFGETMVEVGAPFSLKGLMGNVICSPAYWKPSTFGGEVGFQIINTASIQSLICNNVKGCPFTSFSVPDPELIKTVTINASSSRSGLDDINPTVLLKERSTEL
Put plainly: inhibitory activity on cyclooxygenase-2 (Experimental Example 1-2, human COX-2 expressed by yeast). The class given is biochemical.
Method: as §1

Like-named read-outs stand apart in the source and are kept apart here.

T1 sequence (P23219 24-599): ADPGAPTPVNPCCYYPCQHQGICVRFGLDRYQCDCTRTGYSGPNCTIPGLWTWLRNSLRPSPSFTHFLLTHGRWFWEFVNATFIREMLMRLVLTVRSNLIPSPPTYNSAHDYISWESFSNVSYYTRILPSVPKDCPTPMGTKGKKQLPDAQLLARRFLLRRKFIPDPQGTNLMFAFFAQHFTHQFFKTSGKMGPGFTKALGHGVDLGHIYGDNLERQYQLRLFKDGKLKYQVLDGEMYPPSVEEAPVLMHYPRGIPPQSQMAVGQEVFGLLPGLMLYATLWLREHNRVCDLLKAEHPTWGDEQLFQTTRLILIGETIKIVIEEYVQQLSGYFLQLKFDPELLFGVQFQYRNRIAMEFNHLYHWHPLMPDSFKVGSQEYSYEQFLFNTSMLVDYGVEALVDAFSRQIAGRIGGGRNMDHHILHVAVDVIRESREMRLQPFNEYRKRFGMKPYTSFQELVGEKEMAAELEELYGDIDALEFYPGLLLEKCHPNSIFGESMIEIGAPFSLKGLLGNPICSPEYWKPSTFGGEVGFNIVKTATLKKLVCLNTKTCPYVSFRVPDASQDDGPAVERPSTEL

Take `Cc1nc(-c2ccc(C)s2)c(-c2ccc(S(C)(=O)=O)cc2)o1` [2(A), 5-(4-methylsulfonylphenyl)-2-methyl-4-(5-methyl-2-thienyl)oxazole]: the IC50 at cyclooxygenase-1 (COX-1) [1] stood at 47.5 µM; against cyclooxygenase-1 (COX-1) [3], 50 µM; against cyclooxygenase-2 (COX-2), 0.4 µM; in data set [5], 40 nM. In data set [2], this compound yielded an ED30 of 10.8 mg/kg. In addition, the TD50 at 6 h in data set [4] (po) was > 100 mg/kg.

Turning to `Cc1nc(-c2ccc(S(C)(=O)=O)cc2)c(-c2ccc(C)s2)o1` [2(B), 4-(4-methylsulfonylphenyl)-2-methyl-5-(5-methyl-2-thienyl)oxazole], 100 µM produced 10% inhibition against cyclooxygenase-1 (COX-1) [3]. The compound further yielded an IC50 at cyclooxygenase-2 (COX-2) of 80 µM.

Regarding `Cc1nc(-c2ccc(Cl)s2)c(-c2ccc(S(C)(=O)=O)cc2)o1` [10(A), 4-(5-chloro-2-thienyl)-2-methyl-5-(4-methylsulfonylphenyl)oxazole], the IC50 against cyclooxygenase-1 (COX-1) [1] was 12.5 µM; on cyclooxygenase-2 (COX-2) it was 0.2 µM; in data set [5], 30 nM. The ED30 in data set [2] amounted to 5.4 mg/kg. Moreover, the inhibition at 100 µM at cyclooxygenase-1 (COX-1) [3] was 13%. The TD50 at 6 h in data set [4] (po) was > 100 mg/kg.

Compound `Cc1nc(-c2ccc(S(C)(=O)=O)cc2)c(-c2ccc(Cl)s2)o1` [10(B), 5-(5-chloro-2-thienyl)-2-methyl-4-(4-methylsulfonylphenyl)oxazole] came in with an inhibition at 100 µM at cyclooxygenase-1 (COX-1) [3] of 57%. The midpoint of inhibition against cyclooxygenase-2 (COX-2), the IC50, lay at 30 µM.

`Cc1nc(-c2cccs2)c(-c2ccc(S(C)(=O)=O)cc2)o1` [11(A), 5-(4-methylsulfonylphenyl)-2-methyl-4-(2-thienyl)oxazole] showed an ED30 in data set [2] of 9.5 mg/kg. The compound also returned an inhibition at 100 µM at cyclooxygenase-1 (COX-1) [3] of 14%. On cyclooxygenase-2 (COX-2), this compound showed a half-inhibitory concentration (IC50) of 50 µM.

Turning to `Cc1nc(-c2ccc(S(C)(=O)=O)cc2)c(-c2cccs2)o1` [11(B), 4-(4-methylsulfonylphenyl)-2-methyl-5-(2-thienyl)oxazole], the inhibition at 100 µM worked out at 6% at cyclooxygenase-1 (COX-1) [3] and 2% against cyclooxygenase-2 (COX-2).

`Cc1nc(C2CCCCC2)c(-c2ccc(S(C)(=O)=O)cc2)o1` [Example 1, 4-Cyclohexyl-2-methyl-5-(4-methylsulfonylphenyl)oxazole] showed an ED30 in data set [2] of 5.4 mg/kg. Besides, testing at 100 µM against cyclooxygenase-1 (COX-1) [3] gave an inhibition of 11%. Moreover, in data set [4] (po), the TD50 at 6 h was > 100 mg/kg.

Consider `CCc1nc(C2CCCCC2)c(-c2ccc(S(C)(=O)=O)cc2)o1` [Example 3, 4-Cyclohexyl-2-ethyl-5-(4-methylsulfonylphenyl)oxazole], for which, at cyclooxygenase-1 (COX-1) [3], testing at 100 µM gave an inhibition of 18%. Besides, the IC50 on cyclooxygenase-2 (COX-2) is < 1 µM.

Turning to `Cc1nc(C2CCC(C)CC2)c(-c2ccc(S(C)(=O)=O)cc2)o1` (centres unmarked) [Example 4, 5-(4-methylsulfonylphenyl)-2-methyl-4-(4-methylcyclohexyl)oxazole], the results for the IC50 against cyclooxygenase-1 (COX-1) [1] and against cyclooxygenase-2 (COX-2) were > 100 µM and 4 µM, respectively. Further, the inhibition at 100 µM against cyclooxygenase-1 (COX-1) [3] is 26%.

For `CC1=CCC(c2nc(C)oc2-c2ccc(S(C)(=O)=O)cc2)CC1` (centres unmarked) [Example 5], 100 µM produced 5% inhibition against cyclooxygenase-1 (COX-1) [3]. At cyclooxygenase-2 (COX-2), this compound had an IC50 of 10 µM.

In turn, `Cc1nc(C2CCCC2)c(-c2ccc(S(C)(=O)=O)cc2)o1` [Example 6, 4-cyclopentyl-2-methyl-5-(4-methylsulfonylphenyl)oxazole] had an IC50 against cyclooxygenase-1 (COX-1) [3] of 50 µM. On cyclooxygenase-2 (COX-2), this compound gave an inhibition at 100 µM of 18%.

On cyclooxygenase-1 (COX-1) [3], `Cc1nc(C2CCCCCC2)c(-c2ccc(S(C)(=O)=O)cc2)o1` [Example 7, 4-cycloheptyl-2-methyl-5-(4-methylsulfonylphenyl)oxazole] returned an IC50 of 2 µM.

For the compound `Cc1nc(-c2ccco2)c(-c2ccc(S(C)(=O)=O)cc2)o1` [Example 8, 4-(2-furyl)-2-methyl-5-(4-methylsulfonylphenyl)oxazole], the inhibition at 100 µM against cyclooxygenase-1 (COX-1) [3] and on cyclooxygenase-2 (COX-2) was 7% in each case.

As for `Cc1nc(-c2ccsc2)c(-c2ccc(S(C)(=O)=O)cc2)o1` [Example 9, 5-(4-methylsulfonylphenyl)-2-methyl-4-(3-thienyl)oxazole], the inhibition at 100 µM on cyclooxygenase-1 (COX-1) [3] was 2%; at cyclooxygenase-2 (COX-2) it was 35%.

`CS(=O)(=O)c1ccc(-c2oc(-c3ccccc3)nc2C2CCCCC2)cc1` [Example 12, 2-phenyl-4-cyclohexyl-5-(4-methylsulfonylphenyl)oxazole, reference compound]: the IC50 against cyclooxygenase-1 (COX-1) [3] was > 100 µM. Further, the inhibition at 100 µM at cyclooxygenase-2 (COX-2) was 16%.

With `Cc1nc(-c2ccc(Cl)s2)c(-c2ccc(S(N)(=O)=O)cc2)o1` [Example 13, 5-(4-Aminosulfonylphenyl)-4-(5-chloro-2-thienyl)-2-methyloxazole], the values for the concentration for half-maximal inhibition (IC50) (at cyclooxygenase-1 (COX-1) [1]; in data set [5]) were 0.6 µM and 20 nM, respectively.

Compound `Cc1nc(C2CCCCC2)c(-c2ccc(S(N)(=O)=O)cc2)o1` [Example 14, 5-(4-Aminosulfonylphenyl)-4-cyclohexyl-2-methyloxazole] displayed an ED30 in data set [2] of 4.5 mg/kg. For the same compound, the IC50 at cyclooxygenase-1 (COX-1) [3] was > 100 µM; at cyclooxygenase-2 (COX-2), 1.5 µM; in data set [5], 70 nM. The TD50 at 6 h in data set [4] (po) was > 100 mg/kg.

`CNS(=O)(=O)c1ccc(-c2oc(C)nc2C2CCCCC2)cc1` [Example 15, 4-Cyclohexyl-2-methyl-5-(4-methylaminosulfonylphenyl)oxazole]: the IC50 in data set [5] stood at 4000 nM.

In data set [2], `COc1ccc2c(c1)c(CC(=O)O)c(C)n2C(=O)c1ccc(Cl)cc1` [indomethacin, reference compound] yielded an ED30 of 2.9 mg/kg. Besides, the TD50 at 6 h in data set [4] (oral, stomach examined six hours later, read-out: gastric ulcer formation in rats) came out at 10 mg/kg.
